Key:
Zymoseptoria tritici = assay: Leaf blotch of wheat (SEPTTR) disease control on wheat seedlings; format: in vivo; design: key to SEPTTR 1DP, HV activity at 100 ppm (% control rating) / SEPTTR 3DC, HV activity at 100 ppm (% control rating) / SEPTTR disease control, 1DP / SEPTTR disease control, 3DC / SEPTTR 1DP disease control rating, HV activity / SEPTTR 3DC disease control rating, HV activity / SEPTTR 3DC, LV activity at 125.1 g/H (% Control rating) / SEPTTR 1DP, LV activity at 125.1 g/H (% Control rating) / SEPTTR 1DP disease control rating, LV activity at 125.1 g/H / SEPTTR 3DC disease control rating, LV activity at 125.1 g/H / SEPTTR 3DC disease control rating, HV activity at 100 ppm / SEPTTR 1DP disease control rating, HV activity at 100 ppm / HV activity at 100 ppm SEPTTR 3DC (disease control rating) / HV activity at 100 ppm SEPTTR 1DP (disease control rating) / LV activity at 125.1 g/H SEPTTR 1DP (disease control rating) / LV activity at 125.1 g/H SEPTTR 3DC (disease control rating): A: > 80; B: ≤ 80; C: Not Tested; D: No Activity Observed in the Reported Assay; conditions: for SEPTTR 1DP disease control rating, HV activity / SEPTTR 3DC disease control rating, HV activity: HV application at 100 ppm; for SEPTTR 1DP disease control rating, LV activity at 125.1 g/H / SEPTTR 3DC disease control rating, LV activity at 125.1 g/H / SEPTTR 1DP, LV activity at 125.1 g/H (% Control rating) / SEPTTR 3DC, LV activity at 125.1 g/H (% Control rating): low volume application; for SEPTTR 1DP disease control rating, LV activity at 125.1 g/H: 1 day protectant; for SEPTTR 3DC disease control rating, LV activity at 125.1 g/H: 3 day curative
Method: (§1) All fungicides were evaluated using the aforementioned method for their activity vs. all target diseases, unless stated otherwise. Wheat leaf blotch and brown rust activity were also evaluated using track spray applications, in which case the fungicides were formulated as EC formulations, containing 0.1% Trycol 5941 in the spray solutions. Wheat plants (variety Yuma) were grown from seed in a greenhouse in 50% mineral soil/50% soil-less Metro mix until the first leaf was fully emerged, with 7-10 seedlings per pot. These plants were inoculated with an aqueous spore suspension of Zymoseptoria tritici either prior to or after fungicide treatments. After inoculation the plants were kept in 100% relative humidity (one day in a dark dew chamber followed by two to three days in a lighted dew chamber at 20° C.) to permit spores to germinate and infect the leaf. The plants were then transferred to a greenhouse set at 20° C. for disease to develop. When disease symptoms were fully expressed on the 1st leaves of untreated plants, infection levels were assessed on a scale of 0 to 100 percent disease severity. Percent disease control was calculated using the ratio of disease severity on treated plants relative to untreated plants.

Puccinia triticina = assay: Wheat brown rust (PUCCRT) disease control on wheat seedlings; format: in vivo; design: key to PUCCRT 3DC, HV activity at 100 ppm (% control rating) / PUCCRT disease control, 3DC / PUCCRT 1DP disease control rating, HV activity / PUCCRT 3DC disease control rating, HV activity / PUCCRT 3DC, LV activity at 125.1 g/H (% Control rating) / PUCCRT 1DP, LV activity at 125.1 g/H (% Control rating) / PUCCRT 3DC disease control rating, LV activity at 125.1 g/H / PUCCRT 1DP disease control rating, LV activity at 125.1 g/H / PUCCRT 3DC disease control rating, HV activity at 100 ppm / PUCCRT 1DP disease control rating, HV activity at 100 ppm / HV activity at 100 ppm PUCCRT 3DC (disease control rating) / LV activity at 125.1 g/H PUCCRT 1DP (disease control rating) / LV activity at 125.1 g/H PUCCRT 3DC (disease control rating): A: > 80; B: ≤ 80; C: Not Tested; D: No Activity Observed in the Reported Assay; conditions: for PUCCRT 1DP disease control rating, HV activity / PUCCRT 3DC disease control rating, HV activity: HV application at 100 ppm; for PUCCRT 1DP disease control rating, LV activity at 125.1 g/H / PUCCRT 3DC disease control rating, LV activity at 125.1 g/H / PUCCRT 1DP, LV activity at 125.1 g/H (% Control rating) / PUCCRT 3DC, LV activity at 125.1 g/H (% Control rating): low volume application; for PUCCRT 1DP disease control rating, LV activity at 125.1 g/H: 1 day protectant; for PUCCRT 3DC disease control rating, LV activity at 125.1 g/H: 3 day curative
Method: as §1, with “plants. Example B: Evaluation of Fungicidal Activity: Wheat Brown Rust (Puccinia triticina; Synonym: Puccinia recondita f. sp. Tritici; Bayer Code PUCCRT) Wheat plants (variety Yuma) were grown from seed in a greenhouse in 50% mineral soil/50% soil-less Metro mix until the first leaf was fully emerged, with 7-10 seedlings per pot. These plants were inoculated with an aqueous spore suspension of Puccinia triticina either prior to or after fungicide treatments. […] The plants were then transferred to a greenhouse set at 24° C. for disease to develop. Fungicide formulation, application and disease assessment followed the procedures as described in the Example A.” for “plants.”

[1] = 1 Day Protectant, wheat leaf blotch
[2] = 3 Day Curative, wheat leaf blotch
[3] = 1 Day Protectant, wheat brown rust
[4] = 3 Day Curative, wheat brown rust

Compound | SEPTTR 1DP disease control rating, LV activity at 125.1 g/H (Zymoseptoria tritici) | SEPTTR 3DC disease control rating, LV activity at 125.1 g/H (Zymoseptoria tritici) | PUCCRT 1DP disease control rating, LV activity at 125.1 g/H (Puccinia triticina) | PUCCRT 3DC disease control rating, LV activity at 125.1 g/H (Puccinia triticina) | SEPTTR 1DP, LV activity at 125.1 g/H (% Control rating) (Zymoseptoria tritici; 1 Day Protectant) | SEPTTR 3DC, LV activity at 125.1 g/H (% Control rating) (Zymoseptoria tritici; 3 Day Curative) | PUCCRT 1DP, LV activity at 125.1 g/H (% Control rating) (Puccinia triticina; 1 Day Protectant) | PUCCRT 3DC, LV activity at 125.1 g/H (% Control rating) (Puccinia triticina; 3 Day Curative) | other results
CCC(CC)C(Oc1ccc(C(F)(F)F)cc1)C(C)OC(=O)C(C)NC(=O)c1nccc(OC)c1O (stereo not drawn) [Cmpd 385] | – | – | – | – | – | – | – | – | SEPTTR 1DP disease control rating, HV activity (Zymoseptoria tritici; [1]): D; SEPTTR 3DC disease control rating, HV activity (Zymoseptoria tritici; [2]): D; PUCCRT 1DP disease control rating, HV activity (Puccinia triticina; [3]): B (≤ 80); PUCCRT 3DC disease control rating, HV activity (Puccinia triticina; [4]): A (> 80)
COc1ccnc(C(=O)N[C@@H](C)C(=O)O[C@@H](C)[C@H](OCC2CC2)C2CCCCC2)c1OC(C)=O [Cmpd 882] | D | B (≤ 80) | A (> 80) | A (> 80) | – | – | – | – | –
COc1ccnc(C(=O)NC(C)C(=O)OC(C)COCC2CC2)c1OCOC(=O)C(C)C (stereo not drawn) [Cmpd 528] | – | – | – | – | D | B (≤ 80) | D | D | –
COc1ccnc(C(=O)N[C@@H](C)C(=O)O[C@@H](C)[C@@H](CC(C)C)Oc2cccc(F)c2)c1O [Cmpd 1048] | – | – | – | – | – | – | – | – | HV activity at 100 ppm SEPTTR 1DP (disease control rating) (Zymoseptoria tritici; HV application, 100 ppm, 1 Day Protectant, wheat leaf blotch): B (≤ 80); HV activity at 100 ppm SEPTTR 3DC (disease control rating) (Zymoseptoria tritici; HV application, 100 ppm, 3 Day Curative, wheat leaf blotch): A (> 80); HV activity at 100 ppm PUCCRT 1DP (disease control rating) (Puccinia triticina; HV application, 100 ppm, 1 Day Protectant, wheat brown rust): A (> 80); HV activity at 100 ppm PUCCRT 3DC (disease control rating) (Puccinia triticina; HV application, 100 ppm, 3 Day Curative, wheat brown rust): A (> 80)
C=CC[C@@H](Oc1ccccc1)[C@H](C)OC(=O)[C@H](C)NC(=O)c1nccc(OC)c1OC(C)=O [Cmpd 695] | B (≤ 80) | B (≤ 80) | A (> 80) | A (> 80) | – | – | – | – | –
CCC(CC)[C@@H](Oc1ccc(Cl)cc1)[C@H](C)OC(=O)[C@@H](NC(=O)c1nccc(OC)c1OCOC(C)=O)C(C)C [Cmpd 648] | – | – | – | – | B (≤ 80) | A (> 80) | A (> 80) | B (≤ 80) | –
CC[C@H](NC(=O)c1nccc(OC)c1OC(C)=O)C(=O)O[C@@H](C)[C@H](Oc1cc(F)cc(Cl)c1)c1ccccc1 [Cmpd 644] | – | – | – | – | A (> 80) | A (> 80) | A (> 80) | B (≤ 80) | –
CCC(CC)[C@@H](Oc1cccc(-c2ccccc2)c1)[C@H](C)OC(=O)[C@@H](NC(=O)c1nccc(OC)c1O)C(C)C [Cmpd 413] | – | – | – | – | – | – | – | – | SEPTTR 1DP disease control rating, HV activity (Zymoseptoria tritici; [1]): B (≤ 80); SEPTTR 3DC disease control rating, HV activity (Zymoseptoria tritici; [2]): D; PUCCRT 1DP disease control rating, HV activity (Puccinia triticina; [3]): B (≤ 80); PUCCRT 3DC disease control rating, HV activity (Puccinia triticina; [4]): D
COc1ccnc(C(=O)NC(C)C(=O)OC(C)C(Oc2ccc(C)cc2Cl)C2CCCC2)c1OCOC(C)=O (stereo not drawn) [Cmpd 913] | D | B (≤ 80) | A (> 80) | B (≤ 80) | – | – | – | – | –

From patent US20180000085A1, “USE OF PICOLINAMIDE COMPOUNDS WITH FUNGICIDAL ACTIVITY” (DOW AGROSCIENCES LLC, priority 2014, published 2018)
